Test results published in US12454530B2, “Amido cyclohexane acid derivatives as LPA receptor inhibitors” (CHIESI FARMACEUTICI S.P.A., priority 2020, dated 2025).

Assays:
[1] = target: human recombinant LPA1 expressed in CHO cells (Homo sapiens (Human), UniProt Q92633); assay: LPA1 antagonist FLIPR calcium assay in CHO-hLPA1 cells; assay type: cell-based; details: range of activity; CHO-hLPA1, LPA EC80, Ca2+ mobilization; read-out: LPA1 IC50
Protocol: The effectiveness of compounds of the present invention as LPA1 antagonists can be determined at the human recombinant LPA1 expressed in CHO cells, using a FLIPR assay in 384 well format.
CHO-hLPA1 cell lines are cultured in a humidified incubator at 5% CO2 in DMEM/F-12 (1:1) MIXTURE with 2 mM Glutamax, supplemented with 10% of Foetal Bovine Serum, 1 mM Sodium Pyruvate, 11 mM Hepes and 1× Penicillin/Streptomycin. […] Serial dilutions (1:3 or 1:4, 11 points CRC) of compounds are performed in 100% DMSO at 200× the final concentration. […] The final concentration of DMSO in the assay will be 0.5% in each well. Medium is removed by aspiration and cells are then incubated with 30 μl of a loading solution containing 5 μM of the cytoplasmic Ca2+ indicator Cal-520 AM in Assay Buffer containing 2.5 mM probenecid for 30 min at 37° C. incubator (cell loading). The loaded cell plates are transferred into the FLIPR instrument and calcium responses are monitored during the on-line addition protocols. For testing of compounds, after the cell loading, 10 μl/well of 4× antagonists' solution was added onto the cells. After 30 min pre-incubation (at 37° C.), 10 μl/well of 5× concentrated LPA EC80 was added and Ca2+ mobilization responses was followed during the on-line addition protocol. Intracellular peak fluorescence values subtracted by baseline fluorescence are exported and analysed to determine IC50 values, respectively. The calcium response is expressed as percentage of the maximal inhibition of the EC80 agonist response.
The raw data (peak height expressed as relative fluorescence units) are normalized and transformed into “percent of inhibition”. Curve fitting and pIC50 (−LogIC50) estimations are carried out using a four-parameter logistic model using XLfit Software.

BSEP = BSEP (Homo sapiens (Human), UniProt O95342); assay: BSEP inhibition: biliary clearance of Taurocolic Acid in sandwich-cultured human hepatocytes; assay type: in vitro ADME; details: sandwich-cultured cryopreserved human hepatocytes, probe Taurocolic Acid (TCA); 50 μM test compound, 10 μM TCA, human hepatocytes sandwich configuration
BSEP, sequence (O95342 whole entry): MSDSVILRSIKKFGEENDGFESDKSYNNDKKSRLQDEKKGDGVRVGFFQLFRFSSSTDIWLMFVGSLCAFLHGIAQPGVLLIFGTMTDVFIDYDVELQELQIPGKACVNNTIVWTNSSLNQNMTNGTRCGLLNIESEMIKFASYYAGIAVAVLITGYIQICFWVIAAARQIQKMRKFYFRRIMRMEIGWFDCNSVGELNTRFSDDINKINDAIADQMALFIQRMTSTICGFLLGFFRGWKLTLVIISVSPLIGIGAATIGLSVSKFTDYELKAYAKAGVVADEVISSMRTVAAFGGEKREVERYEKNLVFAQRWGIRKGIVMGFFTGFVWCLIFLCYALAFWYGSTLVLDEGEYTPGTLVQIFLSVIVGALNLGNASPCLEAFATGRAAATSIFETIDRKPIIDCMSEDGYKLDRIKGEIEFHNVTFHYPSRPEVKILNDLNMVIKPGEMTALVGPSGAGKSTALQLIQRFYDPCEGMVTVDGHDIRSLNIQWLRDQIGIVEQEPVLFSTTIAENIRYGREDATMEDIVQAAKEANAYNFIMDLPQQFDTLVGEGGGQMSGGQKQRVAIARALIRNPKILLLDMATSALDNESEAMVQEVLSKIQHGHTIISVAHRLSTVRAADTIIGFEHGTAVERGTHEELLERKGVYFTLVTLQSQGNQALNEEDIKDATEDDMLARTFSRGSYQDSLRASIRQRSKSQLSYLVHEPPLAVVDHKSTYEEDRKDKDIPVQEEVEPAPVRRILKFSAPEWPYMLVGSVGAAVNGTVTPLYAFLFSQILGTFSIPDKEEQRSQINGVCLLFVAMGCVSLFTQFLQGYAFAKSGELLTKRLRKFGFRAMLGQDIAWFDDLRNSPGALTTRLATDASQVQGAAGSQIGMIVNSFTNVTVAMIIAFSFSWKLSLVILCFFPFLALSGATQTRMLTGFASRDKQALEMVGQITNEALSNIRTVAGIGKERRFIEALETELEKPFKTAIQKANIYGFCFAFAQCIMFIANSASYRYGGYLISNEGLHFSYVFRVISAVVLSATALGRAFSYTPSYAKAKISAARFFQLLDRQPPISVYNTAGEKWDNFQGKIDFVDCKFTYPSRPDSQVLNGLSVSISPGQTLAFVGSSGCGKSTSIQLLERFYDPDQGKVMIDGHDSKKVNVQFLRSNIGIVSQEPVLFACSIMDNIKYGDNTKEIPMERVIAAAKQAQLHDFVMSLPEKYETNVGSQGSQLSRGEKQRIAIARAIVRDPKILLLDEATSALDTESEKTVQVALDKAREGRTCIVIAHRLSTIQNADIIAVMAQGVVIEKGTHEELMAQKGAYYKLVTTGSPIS
In short: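 Cryopreserved human hepatocytes were sandwich-cultured between collagen layers for 5 days, then incubated for 10 min at 37 °C in HBSS+ with 10 μM taurocholic acid, with or without 50 μM test compound. Bile content was released with Ca2+/Mg2+-free HBSS and quantified by HPLC-MS/MS. Inhibition is the percent reduction in TCA biliary clearance.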

[2] = Permeability on Caco-2 cells monolayers; assay type: in vitro ADME; details: human, with Elacridar 10 µM (PgP inhibitor), Papp A>B with PgP inhibitor Elacridar, 10 μM compound, read-out: Passive Permeability
Protocol: Even more advantageously, the compounds of formula (I) of the present invention are also endowed with a good permeability profile that, in its turn, can ensure a suitable bioavailability for an oral administration. The permeability was assessed in human Caco 2 cell line, an in vitro model that mimic human gastrointestinal barrier and so useful to predic oral absorption.
The permeability of the compounds of the present invention was evaluated performing the assay on Caco-2 cells monolayers (human colon adenocarcinoma immortalized cell) by measuring the transport of compound (absorption and secretion) in both directions: apical to basolateral direction (A>B) and basolateral to apical (B>A) with and without PgP inhibitor (Elacridar).
The cells, purched from ReadyCell in 96 well format (Cod. KRECE-CCR50), were cultured by the supplier for 21 day on transwell supports in DMEM 1 g/L glucose culture medium supplemented with Fetal Bovin Sierum (10%), Glutamine 200 mM (1%) and Penicillin 10000 U/ml-10 mg/ml Streptomycin (1%).
On day 21 of colture, cell monolayers integrity was verified by measuring the trans-epithelial electric resistance (TEER) using the EVOM equipment (Endohm, WPI, Germany) and studying the apparent permeability (Papp) of reference compounds (Sulpiride and Metoprolol). Furthermore, as a control, the Talinolol 10 uM (Pgp efflux substrate) with and without Elacridar in both directions was used.
The sample solution was prepared dissolving test compound in DMSO at the concentration of 10 mM and then diluted in the Assay Buffer (Hank's Balance Salt Solution) warmed at 37° C. before use, to give the 10 μM Compound working solution with and without 10 μM Elacridar. These working solutions were added to donor compartment (apical for A>B direction and basolateral for B>A direction) and Assay Buffer (Hank's Balance Salt Solution) to the receiver compartment (basolateral for A>B direction and apical for B>A direction). The plate was incubated at 37° C. for 120 min, all incubation were conducted in triplicates. At the end of incubation, samples from donor and receiver compartments were collected for HPLC-MS/MS analyses.
The permeability coefficients (Papp) in both directions: apical to basolateral (A>B) and basolateral to apical (B>A) with and without PgP inhibitor (Elacridar) was calculated in nm/sec, using the following equation:
[formula] • where: • Cr=measured concentration in the receiver well at the time t (expressed as IS ratio) • Vr=volume of the receiver well (ml) • t=time (sec) • A=membrane surface area (cm^2) • C0=initial donor concentration • Passive Papp is considered Papp A>B with PgP inhibitor Elacridar.

human recombinant LPA1 expressed in CHO cells, sequence (Q92633 whole entry): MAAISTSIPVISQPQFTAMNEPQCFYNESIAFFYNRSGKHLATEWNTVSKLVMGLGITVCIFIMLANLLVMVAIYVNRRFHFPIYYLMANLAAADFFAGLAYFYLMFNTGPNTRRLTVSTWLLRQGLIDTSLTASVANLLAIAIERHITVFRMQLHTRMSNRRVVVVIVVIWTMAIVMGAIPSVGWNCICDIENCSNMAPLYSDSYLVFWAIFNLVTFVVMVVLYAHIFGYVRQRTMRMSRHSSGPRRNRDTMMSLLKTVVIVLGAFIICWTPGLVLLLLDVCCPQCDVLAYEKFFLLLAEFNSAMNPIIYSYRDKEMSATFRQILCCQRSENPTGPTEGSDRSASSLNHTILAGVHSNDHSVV

Compound | IC50 [1] | Papp at 120 min, 10 µM [2] | inhibition at 10 min, 50 μM (BSEP)
Cc1nc(-c2cnn(C)c2NC(=O)O[C@H](C)c2ccccc2F)ccc1NC(=O)[C@H]1CCCC[C@@H]1C(=O)O [Example 50, (1S,2S)-2-((6-(5-((((R)-1-(2-fluorophenyl)ethoxy)carbonyl)amino)-1-methyl-1H-pyrazol-4-yl)-2-methylpyridin-3-yl)carbamoyl)cyclohexane-1-carboxylic acid] | 50 to 250 nM | ≥ 1.5 ×10⁻⁶ cm/s | ≤ 50%
Cc1noc(-c2ccc(NC(=O)C3CCCCC3C(=O)O)cn2)c1NC(=O)O[C@H](C)c1ccccc1 (stereo in doubt) [Example 40, Cis-2-((6-(3-methyl-4-((((R)-1-phenylethoxy)carbonyl)amino)isoxazol-5-y1)pyridin-3-yl)carbamoyl)cyclohexane-1-carboxylic acid] | 50 to 250 nM | ≥ 1.5 ×10⁻⁶ cm/s | ≤ 50%
Cc1nc(-c2onc(C)c2NC(=O)O[C@H](C)c2ccccc2C(F)(F)F)ccc1NC(=O)[C@H]1CCCC[C@@H]1C(=O)O [Example 25, (1S,2S)-2-((2-methyl-6-(3-methyl-4-((((R)-1-(2-(trifluoromethyl)phenyl)ethoxy)carbonyl)amino)isoxazol-5-yl)pyridin-3-yl)carbamoy1)cyclohexane-1-carboxylic acid] | 50 to 250 nM | ≥ 1.5 ×10⁻⁶ cm/s | ≤ 50%
Cc1nc(-c2nnn(C)c2NC(=O)O[C@H](C)C2CCCC2)ccc1NC(=O)[C@H]1CCCC[C@@H]1C(=O)O [Example 46, (1S,2S)-2-((6-(5-((((R)-1-cyclopentylethoxy)carbonyl)amino)-1-methyl-1H-1,2,3-triazol-4-yl)-2-methylpyridin-3-yl)carbamoyl)cyclohexane-1-carboxylic acid] | 50 to 250 nM | ≥ 1.5 ×10⁻⁶ cm/s | ≤ 50%
Cc1noc(-c2ccc(NC(=O)[C@H]3CCCC[C@@H]3C(=O)O)cn2)c1NC(=O)O[C@H](C)c1ccccc1C(F)(F)F [Example 36, (1S,2S)-2-((6-(3-methyl-4-((((R)-1-(2-(trifluoromethyl)phenyl)ethoxy)carbonyl)amino)isoxazol-5-yl)pyridin-3-yl)carbamoyl)cyclohexane-1-carboxylic acid] | 50 to 250 nM | ≥ 1.5 ×10⁻⁶ cm/s | ≤ 50%
Cc1noc(-c2ccc(NC(=O)[C@H]3CCCC[C@@H]3C(=O)O)cn2)c1NC(=O)OCc1ccccc1Cl [Example 35, (1S,2S)-2-((6-(4-((((2-chlorobenzyl)oxy)carbonyl)amino)-3-methylisoxazol-5-yl)pyridin-3-yl)carbamoyl)cyclohexane-1-carboxylic acid] | 50 to 250 nM | ≥ 1.5 ×10⁻⁶ cm/s | ≤ 50%

The next lines start with results.

IC50 [1] | Papp at 120 min, 10 µM [2] | Compound | inhibition at 10 min, 50 μM (BSEP)
50 to 250 nM | ≥ 1.5 ×10⁻⁶ cm/s | COc1ccccc1[C@@H](C)OC(=O)Nc1c(C)noc1-c1ccc(NC(=O)[C@H]2CCCC[C@@H]2C(=O)O)c(C)n1 [Example 38, (1S,2S)-2-((6-(4-((((R)-1-(2-methoxyphenyl)ethoxy)carbonyl)amino)-3-methylisoxazol-5-yl)-2-methylpyridin-3-yl)carbamoyl)cyclohexane-1-carboxylic acid] | ≤ 50%
< 50 nM | ≥ 1.5 ×10⁻⁶ cm/s | C[C@@H](OC(=O)Nc1ccsc1-c1ccc(NC(=O)C2CCCCC2C(=O)O)cc1)c1ccccc1Cl (single isomer, unassigned) [Example 7] | ≤ 50%
< 50 nM | ≥ 1.5 ×10⁻⁶ cm/s | Cc1nc(-c2onc(C)c2NC(=O)O[C@H](C)c2ccccc2Br)ccc1NC(=O)[C@H]1CCCC[C@@H]1C(=O)O [Example 28, (1S,2S)-2-((6-(4-((((R)-1-(2-bromophenyl)ethoxy)carbonyl)amino)-3-methylisoxazol-5-yl)-2-methylpyridin-3-yl)carbamoyl)cyclohexane-1-carboxylic acid] | 
< 50 nM | ≥ 1.5 ×10⁻⁶ cm/s | Cc1nc(-c2onc(C)c2NC(=O)O[C@H](C)c2ccccc2F)ccc1NC(=O)[C@H]1CCCC[C@@H]1C(=O)O [Example 24, (1S,2S)-2-((6-(4-((((R)-1-(2-fluorophenyl)ethoxy)carbonyl)amino)-3-methylisoxazol-5-yl)-2-methylpyridin-3-yl)carbamoyl)cyclohexane-1-carboxylic acid] | ≤ 50%
< 50 nM | ≥ 1.5 ×10⁻⁶ cm/s | Cc1nc(-c2onc(C)c2NC(=O)O[C@H](C)C2CCCC2)ccc1NC(=O)[C@H]1CCCC[C@@H]1C(=O)O [Example 26, (1S,2S)-2-((6-(4-((((R)-1-cyclopentylethoxy)carbonyl)amino)-3-methylisoxazol-5-y1)-2-methylpyridin-3-yl)carbamoy1)cyclohexane-1-carboxylic acid] | ≤ 50%
< 50 nM | ≥ 1.5 ×10⁻⁶ cm/s | Cc1noc(-c2ccc(NC(=O)[C@H]3CCCC[C@@H]3C(=O)O)cn2)c1NC(=O)O[C@H](C)c1ccccc1F [Example 34, (1S,2S)-2-((6-(4-((((R)-1-(2-fluorophenyl)ethoxy)carbonyl)amino)-3-methylisoxazol-5-yl)pyridin-3-yl)carbamoyl)cyclohexane-1-carboxylic acid] | ≤ 50%
